Among the data in ChEMBL document CHEMBL1909046, “DrugMatrix in vitro pharmacology data” are IC50 and Ki values, retold here.

For one assay, the target named is T1, Endothelin-1 receptor (Homo sapiens, UniProt P25101). Also: in other assays of this panel Not Active means under 50% inhibition at 10 µM.
T1 sequence (P25101 whole entry): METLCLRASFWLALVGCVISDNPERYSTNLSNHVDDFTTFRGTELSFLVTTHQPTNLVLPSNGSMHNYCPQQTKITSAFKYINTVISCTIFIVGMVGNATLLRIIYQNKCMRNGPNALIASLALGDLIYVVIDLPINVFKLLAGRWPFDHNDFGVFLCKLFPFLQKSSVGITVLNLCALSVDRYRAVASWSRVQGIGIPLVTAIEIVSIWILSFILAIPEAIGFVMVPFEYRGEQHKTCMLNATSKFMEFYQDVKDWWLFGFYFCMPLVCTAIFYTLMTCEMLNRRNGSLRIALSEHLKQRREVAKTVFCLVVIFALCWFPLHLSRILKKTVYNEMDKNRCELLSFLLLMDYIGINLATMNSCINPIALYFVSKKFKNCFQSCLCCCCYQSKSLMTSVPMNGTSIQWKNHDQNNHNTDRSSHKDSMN
Type of assay: cell membranes, Membrane. The following applies: cho-k1.

For a further assay, the target named is Histamine H2 receptor (Homo sapiens, UniProt P25021). The format is cell membranes, CHO-K1, Membrane. The following applies: cho-k1. Also: in other assays of this panel Not Active means under 50% inhibition at 10 µM.
Sequence of Histamine H2 receptor (P25021 whole entry): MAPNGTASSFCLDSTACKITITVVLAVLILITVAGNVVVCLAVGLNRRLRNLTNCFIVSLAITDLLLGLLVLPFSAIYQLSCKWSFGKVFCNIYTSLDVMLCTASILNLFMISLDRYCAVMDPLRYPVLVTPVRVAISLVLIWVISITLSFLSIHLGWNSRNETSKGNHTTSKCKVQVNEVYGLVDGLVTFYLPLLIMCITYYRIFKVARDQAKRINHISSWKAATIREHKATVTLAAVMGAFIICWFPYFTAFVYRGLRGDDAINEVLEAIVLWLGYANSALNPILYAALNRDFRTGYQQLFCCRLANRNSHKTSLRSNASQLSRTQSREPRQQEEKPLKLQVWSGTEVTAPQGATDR
The nature of assay [1]: DRUGMATRIX: Imidazoline I2, Central radioligand binding (ligand: [3H] Idazoxan). The format is cell membranes, Rattus norvegicus, Wistar, Cerebral cortex, Membrane. The following applies: Not Active = under 50% inhibition at 10 µM.
In assay [2] the target is T2, Cysteinyl leukotriene receptor 1 (Homo sapiens, UniProt Q9Y271). Also: in other assays of this panel Not Active means under 50% inhibition at 10 µM.
T2 sequence (Q9Y271 whole entry): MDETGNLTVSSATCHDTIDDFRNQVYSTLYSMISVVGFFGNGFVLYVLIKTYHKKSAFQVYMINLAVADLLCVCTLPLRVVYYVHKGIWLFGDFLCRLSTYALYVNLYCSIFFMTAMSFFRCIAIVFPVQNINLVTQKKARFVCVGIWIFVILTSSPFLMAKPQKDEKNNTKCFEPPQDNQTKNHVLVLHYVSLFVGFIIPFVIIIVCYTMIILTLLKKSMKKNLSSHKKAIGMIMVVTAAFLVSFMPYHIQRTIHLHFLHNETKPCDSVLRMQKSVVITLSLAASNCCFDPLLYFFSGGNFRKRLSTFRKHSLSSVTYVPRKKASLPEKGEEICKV
Type of assay: cell membranes, Membrane. The following applies: cho-k1.

For assay [3], the target named is T3, Muscarinic acetylcholine receptor M4 (Homo sapiens, UniProt P08173). Also: in other assays of this panel Not Active means under 50% inhibition at 10 µM.
T3 sequence (P08173 whole entry): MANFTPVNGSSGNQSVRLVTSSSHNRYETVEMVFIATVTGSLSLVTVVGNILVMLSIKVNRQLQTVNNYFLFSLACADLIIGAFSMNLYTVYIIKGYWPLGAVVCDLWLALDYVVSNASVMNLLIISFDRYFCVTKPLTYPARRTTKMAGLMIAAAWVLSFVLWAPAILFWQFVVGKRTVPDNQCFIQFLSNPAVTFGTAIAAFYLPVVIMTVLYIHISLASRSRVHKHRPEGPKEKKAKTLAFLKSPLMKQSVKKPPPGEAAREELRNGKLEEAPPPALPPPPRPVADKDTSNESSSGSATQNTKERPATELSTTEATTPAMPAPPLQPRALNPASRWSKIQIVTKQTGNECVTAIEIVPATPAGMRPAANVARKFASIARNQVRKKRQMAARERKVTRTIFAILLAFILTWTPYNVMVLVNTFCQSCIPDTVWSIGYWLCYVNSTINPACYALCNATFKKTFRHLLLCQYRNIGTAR
The format is cell membranes, CHO-K1, Membrane.

Assay [4] has as its target Tyrosine-protein kinase Fyn (Homo sapiens, UniProt P06241). Put plainly: biochemical. The format is cell-based, Insect cells.

Sequence of Tyrosine-protein kinase Fyn (P06241 whole entry): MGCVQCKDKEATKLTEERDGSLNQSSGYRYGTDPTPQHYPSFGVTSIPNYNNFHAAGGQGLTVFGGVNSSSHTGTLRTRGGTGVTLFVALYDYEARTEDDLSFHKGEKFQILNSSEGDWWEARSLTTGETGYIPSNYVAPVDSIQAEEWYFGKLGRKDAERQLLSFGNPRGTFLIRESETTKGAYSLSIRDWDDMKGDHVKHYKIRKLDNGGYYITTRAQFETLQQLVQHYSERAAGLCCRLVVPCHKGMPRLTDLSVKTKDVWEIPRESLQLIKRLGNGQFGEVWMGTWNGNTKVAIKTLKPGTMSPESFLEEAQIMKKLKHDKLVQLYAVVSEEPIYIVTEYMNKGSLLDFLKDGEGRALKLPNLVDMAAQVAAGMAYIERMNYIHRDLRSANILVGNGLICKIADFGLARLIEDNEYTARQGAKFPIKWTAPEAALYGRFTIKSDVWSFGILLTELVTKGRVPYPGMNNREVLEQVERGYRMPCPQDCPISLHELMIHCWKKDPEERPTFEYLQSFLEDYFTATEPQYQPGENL

For orientation: IC50 means the midpoint of a concentration-inhibition curve. In general, Ki refers to a measure of affinity in units of concentration, obtained from inhibition or displacement. In the case of `CCOc1nc2cccc(C(=O)O)c2n1Cc1ccc(-c2ccccc2-c2nnn[nH]2)cc1`, the IC50 entry (on Endothelin-1 receptor; against Histamine H2 receptor; in assay [1]; in assay [2]; in assay [3] (cho-k1); in assay [4] (insect cells)) was “Not Active” throughout. Further, the inhibitory constant (Ki) result in assay [1] is “Not Active”.
With `O=C(O)CCCc1cccs1`, the IC50 result (against Endothelin-1 receptor; at Histamine H2 receptor; in assay [1]; in assay [2]; in assay [3] (cho-k1); in assay [4] (insect cells)) was “Not Active” each time. Besides, the Ki result in assay [1] is recorded as “Not Active”.
Consider `COc1ccccc1N`, for which the IC50 entry (at Endothelin-1 receptor; on Histamine H2 receptor; in assay [1]; in assay [2]; in assay [3] (cho-k1); in assay [4] (insect cells)) was “Not Active” each time. The Ki result in assay [1] is “Not Active”.
In the case of `O=C(c1ccccc1F)N1CCC(Cc2ccccc2)CC1`, the IC50 result (against Endothelin-1 receptor; against Histamine H2 receptor; in assay [1]; in assay [2]; in assay [3] (cho-k1); in assay [4] (insect cells)) was “Not Active” each time. Moreover, in assay [1], the Ki result is recorded as “Not Active”.
As for `Cc1c(O)cccc1C(=O)N[C@@H](CSc1ccccc1)[C@H](O)CN1C[C@H]2CCCC[C@H]2C[C@H]1C(=O)NC(C)(C)C`, the IC50 result against Endothelin-1 receptor is “Not Active”; against Histamine H2 receptor it was “Not Active”; in assay [1], “Not Active”; in assay [2], “Not Active”; in assay [3] (cho-k1), “Not Active”; in assay [4] (read-out: IC50) it was 7.97 µM. Also, the Ki result in assay [1] was “Not Active”.
On to `CC(O)COC[C@H]1O[C@@H]2O[C@H]3[C@H](O)[C@@H](O)[C@@H](O[C@H]4[C@H](O)[C@@H](O)[C@@H](O[C@H]5[C@H](O)[C@@H](O)[C@@H](O[C@H]6[C@H](O)[C@@H](O)[C@@H](O[C@H]7[C@H](O)[C@@H](O)[C@@H](O[C@H]8[C@H](O)[C@@H](O)[C@@H](O[C@H]1[C@H](O)[C@H]2O)O[C@@H]8COCC(C)O)O[C@@H]7COCC(C)O)O[C@@H]6COCC(C)O)O[C@@H]5COCC(C)O)O[C@@H]4COCC(C)O)O[C@@H]3COCC(C)O` (stereo partly drawn) [2-HYDROXYPROPYL-BETA-CYCLODEXTRIN], for which the IC50 result is “Not Active” against Endothelin-1 receptor; “Not Active” against Histamine H2 receptor; “Not Active” in assay [1]; “Not Active” in assay [2]; “Not Active” in assay [3] (cho-k1); 3.04 µM in assay [4] (read-out: IC50). The Ki entry in assay [1] was “Not Active”.
For the compound `NC(=O)c1cccc(N)c1` [3-AMINOBENZAMIDE], the IC50 entry (against Endothelin-1 receptor; against Histamine H2 receptor; in assay [1]; in assay [2]; in assay [3] (cho-k1); in assay [4] (insect cells)) was “Not Active” throughout. Besides, the inhibition constant (Ki) entry in assay [1] is on record as “Not Active”.
`C[C@H]1O[C@H](O[C@H]2[C@H](O)[C@@H](O)[C@@H](O[C@H]3[C@H](O)[C@@H](O)C(O)O[C@@H]3CO)O[C@@H]2CO)[C@H](O)[C@@H](O)[C@@H]1N[C@H]1C=C(CO)[C@@H](O)[C@H](O)[C@H]1O` (stereo not given in full) [ACARBOSE]: the IC50 entry (against Endothelin-1 receptor; at Histamine H2 receptor; in assay [1]; in assay [2]; in assay [3] (cho-k1); in assay [4] (insect cells)) was “Not Active” in each case. In assay [1], the Ki entry was “Not Active”.
On to `CC[C@H]1[C@@H]2C[C@H]3[C@@H]4N(C)c5ccccc5[C@]45C[C@@H]([C@@H]2[C@H]5O)N3[C@@H]1O` [AJMALINE], for which the IC50 entry (against Endothelin-1 receptor; on Histamine H2 receptor; in assay [1]; in assay [2]; in assay [3] (cho-k1); in assay [4] (insect cells)) was “Not Active” throughout. In addition, in assay [1], the Ki entry is recorded as “Not Active”.
Take `NC12CC3CC(CC(C3)C1)C2` [AMANTADINE]: the IC50 entry (at Endothelin-1 receptor; against Histamine H2 receptor; in assay [1]; in assay [2]; in assay [3] (cho-k1); in assay [4] (insect cells)) was “Not Active” throughout. For the same compound, in assay [1], the Ki result is “Not Active”.
As to `NCCCNCCSP(=O)(O)O` [AMIFOSTINE], the IC50 entry (on Endothelin-1 receptor; against Histamine H2 receptor; in assay [1]; in assay [2]; in assay [3] (cho-k1); in assay [4] (insect cells)) was “Not Active” throughout. For the same compound, the Ki result in assay [1] is “Not Active”.
For `CN(C)CCC=C1c2ccccc2CCc2ccccc21` [AMITRIPTYLINE], the IC50 result at Endothelin-1 receptor is “Not Active”; in assay [1] (read-out: IC50), 1680 nM; in assay [2] it was “Not Active”; in assay [3] (read-out: IC50) it was 5.3 nM; in assay [4] (insect cells) it was “Not Active”. Further, the values for the inhibitory constant (Ki) in assay [1] (read-out: Ki) and in assay [3] (read-out: Ki) were 1120 nM and 0.739 nM, respectively.
Consider `CC(=O)Oc1ccccc1C(=O)O` [ASPIRIN], for which the IC50 result (on Endothelin-1 receptor; against Histamine H2 receptor; in assay [1]; in assay [2]; in assay [3] (cho-k1); in assay [4] (insect cells)) was “Not Active” in each case. Further, the Ki entry in assay [1] was “Not Active”.
Consider `CC(C)c1c(C(=O)Nc2ccccc2)c(-c2ccccc2)c(-c2ccc(F)cc2)n1CC[C@@H](O)C[C@@H](O)CC(=O)O` [ATORVASTATIN], for which the IC50 result (against Endothelin-1 receptor; at Histamine H2 receptor; in assay [1]; in assay [2]; in assay [3] (cho-k1); in assay [4] (insect cells)) was “Not Active” each time. In assay [1], the Ki entry is recorded as “Not Active”.
Consider `CC(=O)OC[C@H]1O[C@@H](n2ncc(=O)[nH]c2=O)[C@H](OC(C)=O)[C@@H]1OC(C)=O` [AZARIBINE], for which the IC50 entry (against Endothelin-1 receptor; at Histamine H2 receptor; in assay [1]; in assay [2]; in assay [3] (cho-k1); in assay [4] (insect cells)) was “Not Active” throughout. Also, in assay [1], the Ki entry is recorded as “Not Active”.
Take `C[C@H]1[C@H](NC(=O)/C(=N\OC(C)(C)C(=O)O)c2csc(N)n2)C(=O)N1S(=O)(=O)O` [AZTREONAM]: the IC50 result (against Endothelin-1 receptor; against Histamine H2 receptor; in assay [1]; in assay [2]; in assay [3] (cho-k1); in assay [4] (insect cells)) was “Not Active” in each case. For the same compound, in assay [1], the Ki result is “Not Active”.
Turning to `O=C(O)CCNC(=O)c1ccc(/N=N/c2ccc(O)c(C(=O)O)c2)cc1` [BALSALAZIDE], the IC50 result (against Endothelin-1 receptor; against Histamine H2 receptor; in assay [1]; in assay [2]; in assay [3] (cho-k1); in assay [4] (insect cells)) was “Not Active” in each case. Besides, the Ki result in assay [1] was “Not Active”.
As to `COc1cc(OC)c(C(=O)CCCN2CCCC2)c(OC)c1` [BUFLOMEDIL], the IC50 entry (at Endothelin-1 receptor; against Histamine H2 receptor; in assay [1]; in assay [2]; in assay [3] (cho-k1); in assay [4] (insect cells)) was “Not Active” throughout. Moreover, the inhibition constant Ki result in assay [1] is given as “Not Active”.
Regarding `Cn1c(=O)c2c(ncn2C)n(C)c1=O` [CAFFEINE], the IC50 entry (on Endothelin-1 receptor; against Histamine H2 receptor; in assay [1]; in assay [2]; in assay [3] (cho-k1); in assay [4] (insect cells)) was “Not Active” throughout. Moreover, the Ki entry in assay [1] is on record as “Not Active”.
For `ClC(Cl)(Cl)Cl` [CARBON TETRACHLORIDE], the IC50 result (against Endothelin-1 receptor; against Histamine H2 receptor; in assay [1]; in assay [2]; in assay [3] (cho-k1); in assay [4] (insect cells)) was “Not Active” each time. Further, the inhibition constant Ki entry in assay [1] is recorded as “Not Active”.
